Results as given in PMC11855827, “High-Throughput Screening of Five Compound Libraries for Anthelmintic Activity and Toxicity Leads to the Discovery of Two Flavonoid Compounds” (International Journal of Molecular Sciences, 2025).
Where two headings read alike, the source gives them in different places. Where no end group is shown, it is not given here.

Test system: C. elegans
[1] = Table S2, C. elegans SS assay, 110 μM, 0 h, averages of 4 data points
[2] = Table S2, C. elegans SS assay, 110 μM, 24 h, averages of 4 data points

Compound | Percentage of motility inhibition 0 h [1] | Percentage of motility inhibition 24 h [2] | other results
O=C1C[C@@H](c2ccccc2)Oc2cc(O[C@@H]3O[C@H](CO)[C@@H](O)[C@H](O)[C@H]3O)cc(O)c21 [Pinocembrin‐7‐O‐β‐D‐glucopyranoside] | 0% | 17% | 
CCOC(=O)c1c(C)n(C)c2ccc(O)cc12 [Mecarbinate] | 38% | 36% | 
CC(=O)O[C@@]12CO[C@@H]1C[C@H](O)[C@@]1(C)C(=O)[C@H](O)C3=C(C)[C@@H](O)C[C@@](O)([C@@H](OC(=O)c4ccccc4)[C@H]21)C3(C)C [10-Deacetylbaccatin III] | 4% | 5% | 
CC(C)=CCC[C@H](C)CC=O [(S)-(-)-Citronellal] | 18% | 61% | 
COC(=O)C1=CO[C@@H](O[C@@H]2O[C@H](CO)[C@@H](O)[C@H](O)[C@H]2O)[C@@H]2C(CO)=C[C@H](O)[C@H]12 [Methyl deacetylasperulosidate] | 16% | 30% | 
C=C(C)[C@@H]1CC[C@]2(C(=O)O)CC[C@]3(C)[C@H](CC[C@@H]4[C@@]5(C)CCC(=O)C(C)(C)[C@@H]5CC[C@]43C)[C@@H]12 [Betulonic acid] | 24% | 26% | 
CCCCCc1cc(=O)c2ccccc2n1C [1‐Methyl‐2‐pentyl‐4(1H)‐quinolinone] | 44% | 30% | 
C=C(CCC=C(C)C)[C@H]1CC[C@]2(C)[C@@H]1[C@H](O)C[C@@H]1[C@@]3(C)CC[C@H](O[C@@H]4O[C@H](CO)[C@@H](O)[C@H](O)[C@H]4O[C@@H]4O[C@H](CO)[C@@H](O)[C@H](O)[C@H]4O)C(C)(C)[C@@H]3CC[C@]12C [Ginsenoside Rk1] | 4% | 0% | 
CN1[C@@H]2CC[C@H]1C[C@@H](OC(=O)[C@H](CO)c1ccccc1)C2 [L-Hyoscyamine] | 55% | 28% | 
Oc1cc(O)c2c(c1)O[C@H](c1cc(O)c(O)c(O)c1)[C@@H](O)C2 [(+)‐Gallocatechin] | 0% | 12% | 
CC1(C)CC[C@]2(C(=O)O)CC[C@]3(C)C(=CC[C@@H]4[C@@]5(C)C[C@H](O)[C@H](O)[C@@](C)(C(=O)O)[C@@H]5CC[C@]43C)[C@@H]2C1 [Medicagenic acid] | 0% | 5% | 
COc1c(O[C@@H]2O[C@H](CO)[C@@H](O)[C@H](O)[C@H]2O)cc2oc(-c3ccc(O)cc3)cc(=O)c2c1O [Homoplantaginin] | 19% | 5% | 
COc1ccc(C[C@H]2NC[C@H](O)[C@H]2OC(C)=O)cc1 [Anisomycin] | 10% | 44% | 
O=C([O-])c1ccccc1O.[Na+] [Sodium Salicylate] | 2% | 4% | 
O=C1CCCC2C3CCC[N+]4([O-])CCCC(CN12)C34 (stereo not shown) [Oxysophoridine] | 18% | 9% | 
Br.CN1[C@H]2C[C@H](OC(=O)[C@H](CO)c3ccccc3)C[C@@H]1[C@@H](O)C2 [Anisodamine (hydrobromide)] | 0% | 1% | 
C=C1C(=O)O[C@@H]2CC(C)=C([C@@H](C)CCCOC(C)=O)[C@@H](O)[C@H]12 [Inulicin] | 0% | 16% | 
Clc1ccc(COC(Cn2ccnc2)c2ccc(Cl)cc2Cl)c(Cl)c1.O=[N+]([O-])O (stereo not shown) [Miconazole (nitrate)] | 26% | 15% | 

Compound | Percentage of motility inhibition 0 h [1] | Percentage of motility inhibition 24 h [2] | other results
CC(C)(O)CCC(=O)[C@](C)(O)C1[C@H](O)C[C@@]2(C)[C@@H]3CC=C4[C@@H](C[C@H](O)[C@@H](O)C4(C)C)[C@]3(C)C(=O)C[C@]12C (stereo partly shown) [Cucurbitacin IIb] | 7% | 43% | 
CO/N=C(\C(=O)N[C@@H]1C(=O)N2C(C(=O)OCOC(=O)C(C)(C)C)=C(C)CS[C@H]12)c1csc(N)n1.Cl [Cefetamet pivoxil (hydrochloride)] | 55% | 17% | 
O=S(=O)([O-])O.c1c2c(cc3c1OCO3)-c1cc3ccc4c(c3c[n+]1CC2)OCO4 [Coptisine (Sulfate)] | 0% | 9% | 
RKDVY [Thymopentin (acetate)] |  |  | Percentage of motility inhibition 0 h (0 h, 110 μM): 4%; Percentage of motility inhibition 24 h (24 h, 110 µM): 4%
COc1ccc(-c2oc3cc(OC)c(OC)c(O)c3c(=O)c2OC)cc1OC [Artemitin] | 0% | 20% | 
CN1[C@@H]2CC(O)C[C@H]1[C@@H]1O[C@@H]12 (stereo partly shown) [Scopine] | 13% | 5% | 
CN1Cc2c(ccc3c2OCO3)[C@@]2(C)[C@@H](O)Cc3cc4c(cc3[C@@H]12)OCO4 [Corynoline] | 13% | 0% | 
NC(=O)[C@@H]1CC[C@@H]2CN1C(=O)N2OS(=O)(=O)[O-].[Na+] [Avibactam (sodium hydrate)] | 37% | 3% | 
CC(C)=CCC[C@@](C)(O)[C@H]1CC[C@]2(C)[C@@H]1[C@H](O)C[C@@H]1[C@@]3(C)CC[C@H](O)C(C)(C)[C@@H]3CC[C@]12C [(20R)-Protopanaxadiol] | 0% | 43% | 
CC1=C(C(=O)O)N2C(=O)[C@@H](NC(=O)[C@H](N)c3ccccc3)[C@H]2SC1.O [Cephalexin (monohydrate)] | 8% | 0% | 
C/C=C(\C)C(=O)OC1C[C@H]2CC[C@@H](C1)N2C (stereo partly shown) [Tigloidin] | 0% | 0% | 
COc1cc(O)c2c(c1)O[C@H](c1cc(O)cc(O)c1)CC2=O [Blumeatin] | 21% | 11% | 
CC1(C)CC(NC(=O)C(=O)Nc2ccc(Br)cc2)CC(C)(C)N1 [NBD‐557] | 22% | 14% | 
C=C(CC[C@@H](C)[C@H]1CC[C@@]2(C)[C@@H]3CC[C@H]4C(C)(C)[C@@H](OC(=O)/C=C/c5ccc(O)c(OC)c5)CC[C@@]45C[C@@]35CC[C@]12C)C(C)C [24-Methylenecycloartanyl ferulate] |  |  | Percentage of motility inhibition 0 h (110 µM): 0%; Percentage of motility inhibition 24 h (110 µM): 11%
Cc1c(O)c(C)c2occ(Cc3ccc4c(c3)OCO4)c(=O)c2c1O [Methylophiopogonone A] | 0% | 0% | 
CC[C@H]1CN2CCc3cc(OC)c(OC)cc3[C@@H]2C[C@@H]1C[C@H]1NCCc2cc(OC)c(OC)cc21.Cl.Cl.O [Emetine (dihydrochloride hydrate)] | 52% | 7% | 
C=C1[C@H](CO)[C@@H](O)C[C@@H]1n1cnc2c(=O)[nH]c(N)nc21.O [Entecavir (monohydrate)] | 18% | 3% | 
